Assay results published in PMC2866477, “Anticancer Effect and Structure-Activity Analysis of Marine Products Isolated from Metabolites of Mangrove Fungi in the South China Sea” (Marine Drugs, 2010).

Assays:
[1] = system: KB cells; experiment: MTT cytotoxicity assay, KB cells; assay type: cell-based; details: Homo sapiens, 72 h treatment, KB oral epidermoid carcinoma cells
Description: (§1) The cell lines were cultured in DMEM or RPMI 1640 containing 10% fetal bovine serum at 37 °C in the presence of 5% CO2. The cell lines were the oral epidermoid carcinoma cell lines KB and its vincristine-selected ABCB1-overexpressing KBv200 [10]; the breast carcinoma cell lines MCF-7 and its doxorubicin-selected ABCB1-overexpressing MCF-7/adr; the lung carcinoma cell line A549 and normal liver cell line LO2.
(§2) The MTT assay was used to evaluate the cytotoxicity of a number of compounds previously isolated from mangrove-derived fungi as described. Briefly, 3–4 × 10^3 cells were incubated in 96-well plates and allowed to attach overnight before compounds at full range concentrations were added. The concentrations were chosen so that the highest concentration killed most of the cells and the lowest killed none of the cells. After 72 h treatment, 0.5 mg/ml MTT was added to each well for an additional 4 h. Subsequently, the supernatant was removed, and the purple MTT-formazan crystals were dissolved by DMSO. Finally, absorbance was recorded at 540 nm with 655 nm as a reference filter using a Model 550 Microplate Reader (Bio-Rad, USA). Experiments were performed at least three times. The standard chemotherapeutic agent doxorubicin was used as a positive control in MTT assay and normal liver cell line LO2 was used to show whether cytotoxic activity was tumor-specific. The concentrations required to inhibit growth by 50% (IC50) were calculated from survival curves using the Bliss method.

[2] = system: MCF-7 cells; experiment: MTT cytotoxicity assay, MCF-7 cells; assay type: cell-based; details: Homo sapiens, MCF7, 72 h treatment, MCF-7 breast carcinoma cells
Description: as §1, §2

[3] = system: A549 cells; experiment: MTT cytotoxicity assay, A549 cells; assay type: cell-based; details: Homo sapiens, 72 h treatment, A549 lung carcinoma cells
Description: as §1, §2

[4] = system: MCF-7/adr cells; experiment: MTT cytotoxicity assay, MCF-7/adr cells; assay type: cell-based; details: Homo sapiens, NCI/ADR-RES, 72 h treatment, doxorubicin-selected ABCB1-overexpressing MCF-7/adr cells
Description: as §1, §2

[5] = system: pcDNA3.1(+) DNA; experiment: DNA binding assay (agarose gel electrophoresis); details: 10, 100 or 200 μmol/L with 1 μg pcDNA3.1(+), 37 °C, 3 h; 1% agarose gel
Description: 10, 100 or 200 μmol/L compounds were incubated with 1 μg pcDNA3.1(+) at 37 °C for 3 h. The mixtures were then subjected to electrophoresis on a 1% agarose gel, pre-stained with 0.5 μg/ml ethidium bromide, at 60 V for 40 min. Doxorubicin (DOX) was used as a positive control.

[6] = system: KBv200 cells; experiment: MTT cytotoxicity assay, KBv200 cells; assay type: cell-based; details: Homo sapiens, 72 h treatment, vincristine-selected ABCB1-overexpressing KBv200 cells
Description: as §1, §2

[7] = system: normal liver LO2 cells; experiment: MTT cytotoxicity assay, normal liver LO2 cells; assay type: cell-based; details: for IC50: Homo sapiens, L02, 72 h treatment; for sensitivity of cancer cells compared with normal liver LO2 cells: cancer cells versus LO2 cells
Description: as §1, §2

[8] = system: KB, KBv200, MCF-7, MCF-7/adr, and A549 cells; experiment: MTT anticancer screen, cancer cell panel; assay type: cell-based, human; details: for IC50: Homo sapiens, MTT, KB, KBv200, MCF-7, MCF-7/adr, and A549 cells, read-out: IC50 values (potent cytotoxic activity)
Description: as §1, §2

| Structure (SMILES) | IC50 [1] [µM] | IC50 [2] [µM] | IC50 [3] [µM] | IC50 [4] [µM] | DNA intercalation / binding to DNA [5] | IC50 [6] [µM] | IC50 ([7]; normal liver LO2 cells) [µM] | growth inhibitory activity in LO2 cells (in words) ([7]; normal liver LO2 cells) | IC50 [8] [µM] | sensitivity of cancer cells compared with normal liver LO2 cells [7] | IC50 values in MDR cells compared with parental sensitive cells ([8]; KBv200, MCF-7/adr versus KB, MCF-7) |
| --- | --- | --- | --- | --- | --- | --- | --- | --- | --- | --- | --- |
| Cc1c(O)cc(O)c(C(=O)O)c1C [Compound 4] | 1.15 ± 0.06 | 11.7 ± 0.86 | 17.1 ± 1.03 | 35.7 ± 2.08 | none of the compounds investigated here showed binding to DNA | 6.74 ± 0.38 | 16.5 ± 1.22 | exhibited growth inhibitory activity in LO2 cells | < 50 | – | – |
| O=C1c2cc(O)cc(O)c2C(=O)c2c1cc1c(c2O)C2CCCC(O1)O2 (stereo not drawn) [Compound 18] | 28.2 ± 1.66 | 17.2 ± 0.95 | 33.9 ± 2.31 | 25 ± 1.06 | none of the compounds investigated here showed binding to DNA | 44.6 ± 2.57 | > 50 | – | < 50 | more sensitive | – |
| Cc1c(CO)cc([N+](=O)[O-])cc1CO [Compound 1] | 1.57 ± 0.08 | 1.38 ± 0.07 | 2.71 ± 0.15 | 2.34 ± 0.11 | none of the compounds investigated here showed binding to DNA | 2.67 ± 0.17 | 6.59 ± 0.44 | – | < 50 | more sensitive | – |
| C=C/C=C/COc1cccc2c1C(=O)c1c(O)cccc1C2=O [Compound 13] | 21 ± 1.35 | 16.3 ± 0.71 | 31.2 ± 2.02 | > 50 | none of the compounds investigated here showed binding to DNA | > 50 | > 50 | – | < 50 | – | much higher IC50 values |
